Patent US9579325B2, “Modulators of TNF-α signaling” (Genzyme Corporation, priority 2000, dated 2017)

tested on: L929 cells; test: TNF High Throughput Screen (TNF-α driven apoptosis assay); type: cell-based, mouse; conditions: Mus musculus, human TNF-α + actinomycin D, read-out: TNFα IC50
Source text: Description of Table V: The results shown in Table V were obtained using the TNF-α assays performed as described in the protocols entitled “Method for TNF High Throughput Screen” and “Method for VCAM High Throughput Screen”, which are detailed below. These assays measure a cellular response to TNF-α stimulation, and the data published in the table are expressed as percentage inhibitions. Percentage inhibition is computed on a scale of 0 to 100% where 0 percent inhibition means the compound has no effect in the assay (the response is indistinguishable from TNF-α treatment alone), and 100% inhibition means that when the compound is present at the stated concentration, the response in the assay is the same as if TNF-α were not added. These two assays measure two different outcomes of TNF-α treatment, cell death and Vascular Cell Adhesion Molecule (VCAM) expression, and capture two of TNF-α's many biological effects. TNF-α induced apoptosis is a mechanism by which TNF-α production during immune/inflammatory responses can lead to direct cellular and tissue damage. TNF-α VCAM expression in endothelial cells is a response that allows leukocytes to leave the blood and enter a site of immune/inflammatory response. Both of these activities could lead to pathology in immune/inflammatory diseases. In the first column of the table, the percentage inhibition of the TNF-α driven apoptosis assay when the compounds are tested at 1 μM concentration is presented. The second column in the table lists the IC50 for the compound, a standard measure using a dilution series in the assay, and fitting a sigmoidal curve to the resulting dose-response curve. The IC50 is the concentration (derived analytically from the sigmoidal function) at which the compound would inhibit 50% of the response in the assay. The third and fourth column list the corresponding analysis for the TNF-α driven VCAM assay. In Table VI, data corresponding to the data in column 1 of Table V is shown, with human cells replacing the mouse cells used in the high throughput screen. […] As a consequence, the compounds will have use in treating more than one TNF-α mediated condition, and may be selected according to the manner in which the condition manifests. This corresponds to the use of these compounds in the treatment of human disease.
TNF High Throughput Screen.
• 1. Plate 4×10^4 L929 cells in 100 μl of complete EMEM in Costar 96 well plates in PM. • 2. The next day, pretreat with compound, inhibitor and control vehicle for 2 hours. • 3. After 2 hours pretreatment, add 10 μl 5 ng/ml human TNF-α and actinomycin D (40 μg/ml final concentration). • 4. Incubate overnight. • 5. In AM, remove supernatant. • 6. Wash on a plate washer (0.9% NaCl). • 7. Add 100 μl Crystal Violet 0.1% in 20% ETOH. • 8. Incubate at RT for 10 minutes. • 9. Wash on plate washer. • 10. Air dry wells at 37° C. • 11. Add 100 μl of methanol to each well. • 12. Shake plates on orbital shaker and read at 595 nm on plate reader. VCAM High Throughput Screen: Protocol: • 1. Plate Primary human umbilical vein endothelial cells at 1.8×10^4 cells/well in a 96-well tissue culture plate. • 2. Return Plates to 37° C. incubator for 48-72 hours before assay. • 3. On assay day, aspirate wells and add 1804, of endothelial growth cell medium (EGM) to each well. • 4. Add Compound to each well. • 5. Shake plates for 3 minutes. • 6. Incubate plate for 1 hour at 37° C. • 7. Add Tumor Necrosis Factor (TNF) at 1.0 ng/ml final concentration. • 8. Shake plates for 3 minutes. • 9. Incubate plate for 2 hours at 37° C. • 10. Remove plate from incubator and wash plate 3 times with phosphate buffered saline (PBS) using a plate washer. • 11. Add anti-VCAM antibody at 0.5 μg/ml final concentration. • 12. Incubate at 4° C. overnight. • 13. Wash 3 times with PBS on plate washer. • 14. Add goat anti-mouse horseradish peroxidase conjugate. • 15. Incubate at room temperature for one hour. • 16. Wash 3 times with PBS on plate washer. • 17. […]

Structure (SMILES) | IC50 [nM]
N#Cc1cccc(C(C(=O)NCCc2ccccc2)N(CCc2c[nH]cn2)C(=O)c2ccccc2C(=O)c2ccccc2)c1 (stereo not drawn) [Compound 1] | 2640
N#Cc1cccc(C(C(=O)NC(c2ccccc2)c2ccccc2)N(CCc2c[nH]cn2)C(=O)c2ccccc2C(=O)c2ccccc2)c1 (stereo not drawn) [Compound 2] | 5650
N#Cc1cccc(C(C(=O)NC(Cc2ccccc2)c2ccccc2)N(CCc2c[nH]cn2)C(=O)c2ccccc2C(=O)c2ccccc2)c1 (stereo not drawn) [Compound 3] | 1290
N#Cc1cccc(C(C(=O)NCCC(c2ccccc2)c2ccccc2)N(CCc2c[nH]cn2)C(=O)c2ccccc2C(=O)c2ccccc2)c1 (stereo not drawn) [Compound 4] | 941
O=C(c1ccccc1)c1ccccc1C(=O)N(CCc1c[nH]cn1)C(C(=O)NCC(c1ccccc1)c1ccccc1)c1ccccc1 (stereo not drawn) [Compound 5, 2-Benzoyl-N-[(2,2-diphenyl-ethylcarbamoyl)-phenyl-methyl]-N-[2-(1H-imidazol-4-yl)-ethyl]-benzamide] | 872
Cc1ccccc1C(C(=O)NCC(c1ccccc1)c1ccccc1)N(CCc1c[nH]cn1)C(=O)c1ccccc1C(=O)c1ccccc1 (stereo not drawn) [Compound 6] | 1060
Cc1cccc(C(C(=O)NCC(c2ccccc2)c2ccccc2)N(CCc2c[nH]cn2)C(=O)c2ccccc2C(=O)c2ccccc2)c1 (stereo not drawn) [Compound 7] | 4010
Cc1ccc(C(C(=O)NCC(c2ccccc2)c2ccccc2)N(CCc2c[nH]cn2)C(=O)c2ccccc2C(=O)c2ccccc2)cc1 (stereo not drawn) [Compound 8] | 1620
CN(C)CCN(C(=O)c1ccccc1C(=O)c1ccccc1)C(C(=O)NCC(c1ccccc1)c1ccccc1)c1cccc(C#N)c1 (stereo not drawn) [Compound 9] | 496
N#Cc1cccc(C(C(=O)NCC(c2ccccc2)c2ccccc2)N(CCc2c[nH]cn2)C(=O)c2ccccc2Cc2ccccc2)c1 (stereo not drawn) [Compound 10] | 3680
N#Cc1cccc(C(C(=O)NCC(c2ccccc2)c2ccccc2)N(CCN2CCOCC2)C(=O)c2ccccc2C(=O)c2ccccc2)c1 (stereo not drawn) [Compound 11] | 2890
CSc1ccc(C(C(=O)NCC(c2ccccc2)c2ccccc2)N(CCc2c[nH]cn2)C(=O)c2ccccc2C(=O)c2ccccc2)cc1 (stereo not drawn) [Compound 12] | 5150
Cn1cnc(CCN(C(=O)c2ccccc2C(=O)c2ccccc2)C(C(=O)NCC(c2ccccc2)c2ccccc2)c2cccc(C#N)c2)c1 (stereo not drawn) [Compound 13] | 1370
Cn1cncc1CCN(C(=O)c1ccccc1C(=O)c1ccccc1)C(C(=O)NCC(c1ccccc1)c1ccccc1)c1cccc(C#N)c1 (stereo not drawn) [Compound 14] | 1790
N#Cc1cccc(C(C(=O)NCC(c2ccccc2)c2ccccc2)N(CCc2c[nH]cn2)C(=O)c2ccccc2C(=O)c2ccccn2)c1 (stereo not drawn) [Compound 15] | 386
O=C(c1ccccc1)c1ccccc1C(=O)N(CCc1c[nH]cn1)C(C(=O)NCC(c1ccccc1)c1ccccc1)c1cccc(Cl)c1 (stereo not drawn) [Compound 16] | 1320
O=C(c1ccccc1)c1ccccc1C(=O)N(CCc1c[nH]cn1)C(C(=O)NCC(c1ccccc1)c1ccccc1)c1cccc(C(F)(F)F)c1 (stereo not drawn) [Compound 17] | 1500
COc1ccc(CCNC(=O)C(c2cccc(C#N)c2)N(CCc2c[nH]cn2)C(=O)c2ccccc2C(=O)c2ccccc2)cc1 (stereo not drawn) [Compound 18] | 2680
COc1ccc(C(=O)c2ccccc2C(=O)N(CCc2c[nH]cn2)C(C(=O)NCC(c2ccccc2)c2ccccc2)c2cccc(C#N)c2)cc1 (stereo not drawn) [Compound 19] | 457
N#Cc1cccc(C(C(=O)NCC(c2ccccc2)c2ccccc2)N(CCc2c[nH]cn2)C(=O)c2ccccc2C(=O)c2ccc(Cl)cc2)c1 (stereo not drawn) [Compound 20] | 299
N#Cc1cccc(C(C(=O)NCC(c2ccccc2)c2ccccc2)N(CCn2ccnc2)C(=O)c2ccccc2C(=O)c2ccccc2)c1 (stereo not drawn) [Compound 21] | 913

Structure (SMILES) | IC50 [nM]
N#Cc1cccc(C(C(=O)NCC(c2ccccc2)c2ccccc2)N(CCc2c[nH]cn2)C(=O)c2ccccc2-c2ccco2)c1 (stereo not drawn) [Compound 22] | 3850
N#Cc1cccc(C(C(=O)NCC(C2CCCCC2)C2CCCCC2)N(CCc2c[nH]cn2)C(=O)c2ccccc2C(=O)c2ccccc2)c1 (stereo not drawn) [Compound 23] | 2580
N#Cc1cccc(C(C(=O)NCC(c2ccccc2)c2ccccc2)N(CCCc2c[nH]cn2)C(=O)c2ccccc2C(=O)c2ccccc2)c1 (stereo not drawn) [Compound 24] | 1030
N#Cc1cccc(C(C(=O)NCC(c2ccccc2)C2CCCC2)N(CCc2c[nH]cn2)C(=O)c2ccccc2C(=O)c2ccccc2)c1 (stereo not drawn) [Compound 25] | 1580
CN(CC(c1ccccc1)c1ccccc1)C(=O)C(c1ccccc1)N(CCc1c[nH]cn1)C(=O)c1ccccc1C(=O)c1ccccc1 (stereo not drawn) [Compound 26, 2-Benzoyl-N-{[(2,2-diphenyl-ethyl)-methyl-carbamoyl]-phenyl-methyl}-N-[2-(1H-imidazol-4-yl)-ethyl]-benzamide] | 3360
O=C(c1ccccc1)c1ccccc1C(=O)N(CCc1c[nH]cn1)C(Cc1ccccc1C(F)(F)F)C(=O)NCC(c1ccccc1)c1ccccc1 (stereo not drawn) [Compound 27] | 2720
O=C(c1ccccc1)c1ccccc1C(=O)N(CCc1c[nH]cn1)C(Cc1cccc(C(F)(F)F)c1)C(=O)NCC(c1ccccc1)c1ccccc1 (stereo not drawn) [Compound 28] | 5270
N#Cc1cccc(C(C(=O)NCC(c2ccccc2)c2ccccc2)N(CCc2c[nH]cn2)C(=O)c2ccccc2-c2cccs2)c1 (stereo not drawn) [Compound 29] | 3720
O=C(c1ccccc1)c1ccccc1C(=O)N(CCc1c[nH]cn1)C(Cc1ccccc1Cl)C(=O)NCC(c1ccccc1)c1ccccc1 (stereo not drawn) [Compound 30] | 2360
O=C(c1ccccc1)c1ccccc1C(=O)N(CCc1c[nH]cn1)C(Cc1cccc(Cl)c1)C(=O)NCC(c1ccccc1)c1ccccc1 (stereo not drawn) [Compound 31] | 3350
O=C(c1ccccc1)c1ccccc1C(=O)N(CCc1c[nH]cn1)C(Cc1ccc(Cl)cc1)C(=O)NCC(c1ccccc1)c1ccccc1 (stereo not drawn) [Compound 32] | 2330
COc1ccccc1CC(C(=O)NCC(c1ccccc1)c1ccccc1)N(CCc1c[nH]cn1)C(=O)c1ccccc1C(=O)c1ccccc1 (stereo not drawn) [Compound 33] | 2350
COc1cccc(CC(C(=O)NCC(c2ccccc2)c2ccccc2)N(CCc2c[nH]cn2)C(=O)c2ccccc2C(=O)c2ccccc2)c1 (stereo not drawn) [Compound 34] | 1540
COc1ccc(CC(C(=O)NCC(c2ccccc2)c2ccccc2)N(CCc2c[nH]cn2)C(=O)c2ccccc2C(=O)c2ccccc2)cc1 (stereo not drawn) [Compound 35] | 2640
O=C(c1ccccc1)c1ccccc1C(=O)N(CCc1c[nH]cn1)C(Cc1ccccc1F)C(=O)NCC(c1ccccc1)c1ccccc1 (stereo not drawn) [Compound 36] | 2150
O=C(c1ccccc1)c1ccccc1C(=O)N(CCc1c[nH]cn1)C(Cc1cccc(F)c1)C(=O)NCC(c1ccccc1)c1ccccc1 (stereo not drawn) [Compound 37] | 2360
O=C(c1ccccc1)c1ccccc1C(=O)N(CCc1c[nH]cn1)C(Cc1ccc(F)cc1)C(=O)NCC(c1ccccc1)c1ccccc1 (stereo not drawn) [Compound 38] | 2790
N#Cc1cccc(C(C(=O)NCC(c2ccccc2)c2ccccn2)N(CCc2c[nH]cn2)C(=O)c2ccccc2C(=O)c2ccccc2)c1 (stereo not drawn) [Compound 39] | 1320
[N-]=[N+]=Nc1cccc(C(C(=O)NCC(c2ccccc2)c2ccccc2)N(CCc2c[nH]cn2)C(=O)c2ccccc2C(=O)c2ccccc2)c1 (stereo not drawn) [Compound 40] | 1740
CN(C)CCN(C(=O)c1ccccc1C(=O)c1ccccc1)C(Cc1ccccc1)C(=O)NCC(c1ccccc1)c1ccccc1 (stereo not drawn) [Compound 41] | 6490

same assay, conditions: human TNF-α + actinomycin D, read-out: TNFα IC50

Structure (SMILES) | IC50 [nM]
O=C(c1ccccc1)c1ccccc1C(=O)N(CCc1c[nH]cn1)[C@H](Cc1ccccc1)C(=O)NCC(c1ccccc1)c1ccccc1 [Compound 47, 2-Benzoyl-N-[(1′R)-1′(2,2′-diphenyl-ethylcarbamoyl)-2′-phenyl-ethyl]-N-[2-(1H-imidazol-4-yl)-ethyl]-benzamide] | 5580
